{"source": "patent US11065211B2", "about": "“Isoxylitones mediated neurogenesis” (priority 2018, dated 2021)", "type_in_all_cases": "cell-based, rat", "key": {"cortical (CTX) cells": {"system": "cortical (CTX) cells", "experiment": "Growth supporting effect on neuronal cultures (phase contrast microscopy)", "details": "cortical cells treated for 24 h, FIG. 1", "description": "(§1) For isolation of hippocampal and cortical neurons, two days old rat pups were sacrificed under sterile conditions. Brain samples were carefully isolated and hippocampal and cortical regions were dissected out and placed in ice-cold PBS supplemented with 1% penicillin-streptomycin. Tissue was chopped in small pieces with a sterile scalpel and washed three times with PBS. Subsequently tissues were digested in typsin-EDTA solution (0.05% of trypsin) for 7 minutes at 37° C. and 5% CO2 in a humidified chamber. After typsinisation, cells were washed three times in Dulbecco's Modified Eagle's Medium (DMEM) media containing 5% FBS and finally triturated using flame-polished Pasteur pipette to prepare dissociated cell suspension. The cell suspensions were then centrifuged at 1200 rpm for 4 minutes, supernatants were discarded and cell pellets were re-suspended in 1 mL complete media to find out the cell count and viability. Cells were finally cultured in DMEM (high glucose), supplemented with 10% fetal bovine serum (FBS), 1% L-Glutamine, 1% penicillin/streptomycin (10,000 U/mL and 10 mg/mL, resp.), and 1% sodium pyruvate. The culture flasks (75 cm^2) were then incubated at 37° C. with 5% CO2. Cells were examined daily for any change in morphology or contamination. Media was changed twice or thrice weekly. All cell work was done in a tissue culture hood under sterile conditions.\n(§2) To evaluate the growth supporting effect of isoxylitones the hippocampal, cortical and co-cultured cells were plated in 6-well plates and treated with 25 μg/mL, 50 μg/mL, 75 μg/mL and 150 μg/mL doses of isoxylitones. Cells with no treatment were set as a control. The plates were incubated for 24 and 72 hrs in a humidified chamber at 37° C. in 5% CO2. To assess the morphology of the treated cells, images were captured and digitalized with Nikon TE-2000 inverted microscope equipped with phase-contrast optics to measure the difference of control group from treated group. The cells were observed carefully in order to check if they maintain their morphological characteristics after treatment with the compound. The doses which supported the maximum proliferation were used for proliferation assays i.e., AlamarBlue and BrdU assay."}, "hippocampal (HP) cells": {"system": "hippocampal (HP) cells", "experiment": "Growth supporting effect on neuronal cultures (phase contrast microscopy)", "details": "FIG. 1", "description": "as §1, §2"}, "cortical cells": {"system": "cortical cells", "experiment": "AlamarBlue proliferation assay", "details": "24 h treatment, vs control, FIG. 3", "excerpt": "(§3) AlamarBlue (AB), a water-soluble dye having resazurin salt was used to evaluate the effect of isoxylitones on the proliferation of the cultured cells. AB measures mitochondrial reductase activity of live cells. The resazurin has ability to enter the cytosol of viable cell and converted to the reduced fluorescent form resorufin by mitochondrial enzyme activity by accepting electrons from NADPH, FADH, FMNH, NADH as well as from the cytochromes. The redox reaction is accompanied by a change in color of the culture medium from blue to fluorescent red (Al-Nasiry, Geusens, Hanssens, Luyten, Pijnenborg, 2007). The amount of fluorescence produced is proportional to the number of living cells (Al-Nasiry, Geusens, Hanssens, Luyten, Pijnenborg, 2007). The cultured hippocampal, cortical and co-cultures were plated in 96-well plates (10,000 cells/well) and incubated for 24 hrs at 37° C. and 5% CO2. […] After incubation, the fluorescence intensity in each well was recorded at an excitation wavelength of 570 nm and an emission wavelength of 600 nm. The rate of cell proliferation was expressed as the relative fluorescence intensity. […] The blank media fluorescence measurement was subtracted from fluorescence measurements of cells from the same run.\n(§4) Formula used to calculate the percentage reduction of AB using absorbance readings: […]"}, "hippocampal cells": {"system": "hippocampal cells", "experiment": "AlamarBlue proliferation assay", "details": "24 h treatment, vs control, FIG. 3", "excerpt": "as §3, §4"}, "[1]": {"details": "hippocampal cells treated for 24 h"}}}
{"compound": "CC(=O)C=C1C=C(C)CC(C)(C)C1", "note": "(mixture of isomers) [isoxylitones]", "values": [{"measurement": "effect on morphology", "setting": "cortical (CTX) cells", "value": "without any significant change in morphology"}, {"measurement": "proliferation (phase contrast photomicrographs)", "setting": "cortical (CTX) cells", "value": "increased proliferation"}, {"measurement": "effect on morphology", "setting": "hippocampal (HP) cells; [1]", "value": "without any significant change in morphology"}, {"measurement": "proliferation (phase contrast photomicrographs)", "setting": "hippocampal (HP) cells; [1]", "value": "increased proliferation"}, {"measurement": "proliferation of treated hippocampal cells compared to cortical cells", "setting": "hippocampal (HP) cells; treated for 24 h", "value": "higher proliferation as compared to cortical cells"}, {"measurement": "proliferation (Alamar blue)", "setting": "cortical cells", "value": "growth supportive and proliferative effect"}, {"measurement": "proliferation (Alamar blue)", "setting": "hippocampal cells", "value": "growth supportive and proliferative effect"}]}
